Data published in patent US12551499B2 (Atea Pharmaceuticals, Inc., priority 2020, dated 2026).
Read-outs that look alike come from different tables or passages of the source.

Columns and labels:
[1] = system: human bronchial epithelial cells; settings: 10 μM
[2] = system: human nasal epithelial cells; settings: 10 μM
[3] = system: RSV; settings: RSV-infected HAE cells; read-out: in vitro EC90; cited from earlier work
[4] = Plasma PK in non-human primates after oral Compound 2A; settings: monkey plasma, oral Compound 2A 60 mg/kg then 30 mg/kg every 12 h, steady state
[5] = system: HCV; settings: HCV-infected subjects, up to 12 weeks; cited from earlier work
[6] = system: SARS-CoV-2 (WA1); assay: Virus yield reduction assay, SARS-CoV-2 in dNHBE / HAE cells; format: cell-based
Description: The antiviral activity of Compound 1A was next evaluated against SARS-CoV-2 (WA1) using differentiated normal human bronchial epithelial (dNHBE; HAE (human airway epithelial) cells made to order by MatTek Corporation (Ashland, MA).
Cell Culture: dNHBE cells were grown on 6 mm mesh disks and arrived in kits with either 12- or 24-well transwell inserts. During transportation the tissues were stabilized on a sheet of agarose, which was removed upon receipt. One insert was estimated to consist of approximately 1.2×10^6 cells. Kits of cell inserts (EpiAirway™ AIR-100, AIR-112) originated from a single donor, #9831, a healthy, non-smoking person. The cells have unique properties in forming layers, the apical side of which is exposed only to air and that creates a mucin layer. Upon arrival, the cell transwell inserts were immediately transferred to individual wells of a 6-well plate according to manufacturer's instructions, and 1 mL of MatTek's proprietary culture medium (AIR-100-MM) was added to the basolateral side, whereas the apical side was exposed to a humidified 5% CO2 environment. Cells were cultured at 37° C. for one day before the start of the experiment. After the 24 hour equilibration period, the mucin layer, secreted from the apical side of the cells, was removed by washing with 400 μL pre-warmed 30 mM HEPES buffered saline solution 3×. Culture medium was replenished following the wash steps.
Viruses: Virus was diluted in AIR-100-MM medium before infection, yielding a multiplicity of infection (MOI) of approximately 0.0015 CCID50 per cell.
The cells were maintained at the air-liquid interface.
Determination of virus titers from each treated cell culture: Vero 76 cells were seeded in 96-well plates and grown overnight (37° C.) to confluence. Samples containing virus were diluted in 10-fold increments in infection medium and 200 μL of each dilution transferred into respective wells of a 96-well microtiter plate. Four microwells were used for each dilution to determine 50% viral endpoints. After 5 days of incubation, each well was scored positive for virus if any cytopathic effect (CPE) was observed as compared with the uninfected control and counts were confirmed for endpoint on days 6 and 7. […] The day 5 values were reported. Untreated, uninfected cells were used as the cell controls.
The antiviral activities of test compounds were evaluated against SARS-CoV-2 (USA-WA1/2020) using made to order human airway epithelial (HAE) cells.
Cell Culture: HAE cells were grown on 6 mm mesh disks and arrived in kits with either 12- or 24-well transwell inserts. During transportation the tissues were stabilized on a sheet of agarose, which was removed upon receipt. One insert was estimated to consist of approximately 1.2×10^6 cells. Kits of cell inserts (EpiAirway™ AIR-100 or AIR-112) originated from a single donor, #9831, a healthy, non-smoking person. The cells form polarized monolayers, the apical side of which is exposed to air and creates a mucin layer. Upon arrival, the cell transwell inserts were immediately transferred to individual wells of a 6-well plate according to the manufacturer's instructions, and 1 mL of MatTek's proprietary culture medium (AIR-100-MM) was added to the basolateral side, whereas the apical side was exposed to a humidified 5% CO2 environment. Cells were cultured at 37° C. in a humidified atmosphere containing 5% CO2 for one day before the start of the experiment. After the 24-h equilibration period, the mucin layer, secreted from the apical side of the cells, was removed by washing with 400 μL pre-warmed 30 mM HEPES buffered saline solution 3×. Culture medium was replenished following the wash steps.
Viruses: Virus was diluted in AIR-100-MM medium before infection to yield a MOI when added to cultures of approximately 0.0015 CCID50 per cell.
Select compounds of the present invention were tested in a SARS-CoV-2 assay. […]

[7] = system: human airway epithelial (HAE) cells
[8] = in vitro; settings: human
[9] = Severe acute respiratory syndrome coronavirus 2, HAE, SARS-CoV-2 in HAE (dNHBE) cells, Table 11, read-out: VYR Assay EC90
[10] = Severe acute respiratory syndrome coronavirus 2, HAE, SARS-CoV-2, Table 11B, read-out: VYR Assay EC90

Q: Which “ratio of triphosphate from Compound 1A vs. comparator” value (from here on “ratio of triphosphate”) ([1]; 8 h) does the source give for `Nc1ccn([C@@H]2O[C@@](CO)(CCl)[C@@H](O)[C@H]2F)c(=O)n1` [ALS-8112, reference compound] here?
A: 2

Q: What about the “ratio of triphosphate” value ([1]; 15 h) of the same molecule?
A: 5

Q: What about the “ratio of triphosphate” value ([2]; 8 h) of the same molecule?
A: 1

Q: And the “ratio of triphosphate” value ([2]; 15 h)?
A: 3

Q: What about the EC90 [3] of the same molecule?
A: 1.3 to 2.7 µM

Q: Which Cmax [4] does the source give for `C[C@@]1(F)[C@H](O)[C@@H](CO)O[C@H]1n1cnc2c(=O)[nH]c(N)nc21` [Compound 1-7, 2-amino-9-((2R,3R,4R,5R)-3-fluoro-4-hydroxy-5-(hydroxymethyl)-3-methyltetrahydrofuran-2-yl)-1,9-dihydro-6H-purin-6-one] here?
A: 160 nM

Q: What about the Tmax [4] of the same molecule?
A: 2 h

Q: Which safety and tolerability [5] does the source give for `CNc1nc(N)nc2c1ncn2[C@@H]1O[C@H](CO[P@@](=O)(N[C@@H](C)C(=O)OC(C)C)Oc2ccccc2)[C@@H](O)[C@@]1(C)F` [Compound 2A] here?
A: safe and well-tolerated

Q: With `[2H]C([2H])([2H])[C@@]1(F)[C@H](O)[C@@H](CO[P@@](=O)(N[C@@H](C)C(=O)OC(C)C)Oc2ccccc2)O[C@H]1n1cnc2c(NC)nc(N)nc21` [Compound 5, Isopropyl ((S)-(((2R,3R,4R,5R)-5-(2-amino-6-(methylamino)-9H-purin-9-yl)-4-fluoro-3-hydroxy-4-methyltetrahydrofuran-2-yl)methoxy)(phenoxy)phosphoryl)-L-alaninate] as the molecule, how does the EC90 [6, 9] read?
A: 0.31 µM

Q: And the “VYR Assay CC50” value [7]?
A: no visual tox

Q: Which results are given for `CNc1nc(N)nc2c1ncn2[C@@H]1O[C@H](CO[P@@](=O)(N[C@@H](C)C(=O)OC(C)C)Oc2ccccc2)[C@@H](O)[C@]1(F)CF` [Compound 6, Isopropyl ((S)-(((2R,3R,4R,5R)-5-(2-amino-6-(methylamino)-9H-purin-9-yl)-4-fluoro-4-(fluoromethyl)-3-hydroxytetrahydrofuran-2-yl)methoxy)(phenoxy)phosphoryl)-L-alaninate]?
A: EC90 [6, 9]: 1.8 µM; VYR Assay CC50 [7]: no visual tox

Q: For `C#C[C@@]1(F)[C@H](O)[C@@H](CO[P@@](=O)(N[C@@H](C)C(=O)OC(C)C)Oc2ccccc2)O[C@H]1n1cnc2c(NC)nc(N)nc21` [Compound 7, Isopropyl ((S)-(((2R,3R,4R,5R)-5-(2-amino-6-(methylamino)-9H-purin-9-yl)-4-ethynyl-4-fluoro-3-hydroxytetrahydrofuran-2-yl)methoxy)(phenoxy)phosphoryl)-L-alaninate], which EC90 [6, 9] is on record?
A: 3.2 µM

Q: And the “VYR Assay CC50” value [7]?
A: no visual tox

Q: Which EC90 [6, 9] does the source give for `C=C[C@@]1(F)[C@H](O)[C@@H](CO[P@@](=O)(N[C@@H](C)C(=O)OC(C)C)Oc2ccccc2)O[C@H]1n1cnc2c(NC)nc(N)nc21` [Compound 8, Isopropyl ((S)-(((2R,3R,4R,5R)-5-(2-amino-6-(methylamino)-9H-purin-9-yl)-4-fluoro-3-hydroxy-4-vinyltetrahydrofuran-2-yl)methoxy)(phenoxy)phosphoryl)-L-alaninate] here?
A: 6.4 µM

Q: And the “VYR Assay CC50” value [7]?
A: no visual tox

Q: For `CNc1nc(N)nc2c1ncn2[C@@H]1O[C@H](CO[P@@](=O)(N[C@@H](C)C(=O)OC(C)C)Oc2ccccc2)[C@@H](O)[C@]1(F)CO` [Compound 9, Isopropyl ((S)-(((2R,3R,4R,5R)-5-(2-amino-6-(methylamino)-9H-purin-9-yl)-4-fluoro-3-hydroxy-4-(hydroxymethyl)tetrahydrofuran-2-yl)methoxy)(phenoxy)phosphoryl)-L-alaninate], which EC90 [6, 9] is on record?
A: 8.5 µM

Q: What about the “VYR Assay CC50” value [7] of the same molecule?
A: no visual tox

Q: Which results are given for `CC(C)OC(=O)[C@H](C)NP(=O)(OC[C@H]1O[C@@H](n2cnc3c(NC4CC4)nc(N)nc32)[C@@](F)(CO)[C@@H]1O)Oc1ccccc1` (stereo partly drawn) [Compound 10, Isopropyl ((((2R,3R,4R,5R)-5-(2-amino-6-(cyclopropylamino)-9H-purin-9-yl)-4-fluoro-3-hydroxy-4-(hydroxymethyl)tetrahydrofuran-2-yl)methoxy)(phenoxy)phosphoryl)-L-alaninate]?
A: EC90 [6, 9]: 5.3 µM; VYR Assay CC50 [7]: no visual tox

Q: With `CNc1nc(N)nc2c1ncn2[C@@H]1O[C@H](CO[P@@](=O)(N[C@@H](C)C(=O)OC(C)C)Oc2ccccc2)[C@@H](O)[C@]1(F)C(F)(F)F` [Compound 11A] as the molecule, how does the EC90 ([6]; Severe acute respiratory syndrome coronavirus 2, HAE, read-out: VYR Assay EC90, SARS-CoV-2 in HAE (dNHBE) cells, Table 11) read?
A: 3.7 µM

Q: What about the “VYR Assay CC50” value [7] of the same molecule?
A: no visual tox

Q: Which EC90 [6, 10] does the source give for `Cc1nc2nccnc2n1[C@@H]1O[C@H](COP(=O)(N[C@@H](C)C(=O)OC(C)C)Oc2ccccc2)[C@@H](O)[C@]1(F)C(F)(F)F` (stereo partly drawn) [Compound 12] here?
A: 1.5 µM

Q: Which EC90 [6, 10] does the source give for `Cc1ncc2ncn([C@@H]3O[C@H](COP(=O)(N[C@@H](C)C(=O)OC(C)C)Oc4ccccc4)[C@@H](O)[C@]3(F)C(F)(F)F)c2n1` (stereo partly drawn) [Compound 13] here?
A: 3.2 µM

Q: With `CC(C)OC(=O)[C@H](C)NP(=O)(OC[C@H]1O[C@@H](Oc2ncc(Br)nc2C(N)=O)[C@@](F)(C(F)(F)F)[C@@H]1O)Oc1ccccc1` (stereo partly drawn) [Compound 14] as the molecule, how does the EC90 [6, 10] read?
A: 0.57 µM

Q: Which EC90 [6, 10] does the source give for `CC(C)OC(=O)[C@H](C)N[P@](=O)(OC[C@H]1O[C@@](C#N)(n2ncc3c(N)ncnc32)[C@H](F)[C@@H]1O)Oc1ccccc1` [Compound 15] here?
A: 1.1 µM

Q: Which “Selectivity Index (CC50/EC90)” value ([6]; SARS-CoV-2 in HAE, Table 5) does the source give for `O=c1nc(NO)ccn1[C@@H]1O[C@H](CO)[C@@H](O)[C@H]1O` [N^4-hydroxycytidine, reference compound] here?
A: >5.1

Q: What about the EC90 ([6]; SARS-CoV-2 in HAE, footnotes f, g, h of Table 5, read-out: EC90, single replicates) of the same molecule?
A: 3.1 µM

Q: And the “potency relative to Compound 1A (times less)” value ([6]; SARS-CoV-2 in HAE, same experiment)?
A: 8 times

Q: Which results are given for `CC(C)OC(=O)[C@H](C)N[P@](=O)(OC[C@H]1O[C@@H](n2ccc(=O)[nH]c2=O)[C@](C)(F)[C@@H]1O)Oc1ccccc1` [Sofosbuvir, reference compound]?
A: EC90 [6, 9]: > 19 µM; VYR Assay CC50 [7]: no visual tox

Q: With `CCN(CC)CCCC(C)Nc1ccnc2cc(Cl)ccc12` (stereo not drawn) [chloroquine] as the molecule, how does the CC50 [8] read?
A: 21 µM

Q: Which CC50 [8] does the source give for `CCN(CCO)CCCC(C)Nc1ccnc2cc(Cl)ccc12` (stereo not drawn) [hydroxychloroquine] here?
A: 26 µM
